Assay [1] has as its system HepG2 (hepatocellular carcinoma). Kind of assay: in vitro cytotoxicity assay (Cell-Titer-Glo), HepG2. Conditions: Homo sapiens, Table 10, 96 hours, read-out: IC50 HepG2 (inhibit cell growth to 50% of untreated). It is filed as cell-based.
In another assay the test system is TT (medullary thyroid). In words: in vitro cytotoxicity assay (Cell-Titer-Glo), TT. Format: cell-based. The procedure: (§1) To evaluate cell killing of cancer cell lines, an in vitro cytotoxicity assay was performed. The tumor cell lines used were purchased from the American Type Culture Collection, and are identified as follows: Panc-1 (pancreas), MiaPaCa-2 (pancreas), MCF-7 (breast), HT-29 (colon), U2-OS (osteosarcoma), OVCAR-3 (ovary), HepG2 (hepatocellular carcinoma) and TT (medullary thyroid). The assay utilized the Cell-Titer-Glo Non-Radioactive Cell Proliferation Assay (Promega Corp., Madison, Wis.). First the cells were cultured in RPMI 1640 medium (Cat# 21870-076, Invitrogen Corporation) supplemented with 300 mg/L L-glutamine, 100 units/ml penicillin, 100 μg/ml streptomycin and 10% fetal bovine serum. All the cell lines were incubated in a humidified incubator at 37° C. with 5% CO2 atmosphere.
Cells were plated at a density of 2000 to 10000 cells per well, depending on their growth rate, in 0.09 mL medium on day 0 in 96-well Microlite TCT microtiter plates (7418, Thermo Labsystems, Franklin, Mass.). On day 1, 10 μL of serial dilutions of the individual compounds were added to the plates in replicates of 3. After incubation for 4 days at 37° C. in a humidified incubator, the cells were lysed in the Cell-Titer-Glo reagent, which also contains luciferase enzyme. The luciferase reaction utilizes ATP released from lysed cells to produce light, the intensity of which is linearly related to the amount of ATP. Thus, the amount of light produced is a reflection of the number of cells remaining in the well after drug treatment. This luminescence was measured using a Luminoskan luminometer (Thermo Electron Corp., Vantaa, Finland) Data were expressed as the percentage of survival of control cells calculated from the luminescence corrected for background. The surviving percent of cells was determined by dividing the mean luminescence values of the treated wells by the mean luminescence values of the control and multiplying by 100.
as §1, with “Briefly,” for “To evaluate cell killing of cancer cell lines, an in vitro cytotoxicity assay was performed. The”, “thyroid), PC-3 (prostate) and A549 (lung).” for “thyroid).”
Cell culture-based assays can be used to evaluate the ability of compounds of the invention to inhibit one or more cellular activities, such as cancer cell growth and/or survival. Numerous cancer cell lines can be obtained from the American Type Culture Collection (ATCC) and other sources. Briefly, cells are seeded into 96-well, tissue-culture treated, opaque white plates (Thermo Electron, Vantaa, Finland), at between 5000 and 10000 cells per well, depending on the speed of cell proliferation, in 100 μl of appropriate growth medium (determined by the ATCC). Cells are then exposed to the appropriate concentration of drug or an equal amount of DMSO (drug diluent) and allowed to grow in its presence for 96 hours. Following this, 100 μl of Cell-Titer-Glo reagent (Promega, Inc., Madison, Wis.) is added to each well. Plates are then shaken for 2 minutes at room temperature to allow for cell lysis and incubated for 10 minutes to stabilize the luminescent signal. Similar to the Kinase-Glo assay reagent from Promega, this reagent contains both luciferase enzyme and its substrate luciferin. Luciferase, activated by ATP in the cell lysate, catalyzes the conversion of luciferin to oxyluciferin, a reaction which produces light. […]

In a further assay the test system is MiaPaCa-2 (pancreas). In words: in vitro cytotoxicity assay (Cell-Titer-Glo), MiaPaCa-2. Format: cell-based. Conditions: Homo sapiens, MIA PaCa-2; Table 10; 96 hours; read-out: IC50 MiaPaCa-2 (inhibit cell growth to 50% of untreated).
In a further assay the test system is Panc-1 cells. In words: hollow fiber xenograft model (MTT), Panc-1. The following applies: Panc-1 fibers implanted SC. It is filed as in vivo, athymic nude mice. Here is the method:
Compound 2-3 was tested against three tumor types in athymic nude mice using the hollow fiber xenograft model. After incubation and growth overnight, drug-permeable fibers containing tumor cells were surgically implanted either intraperitoneally (IP) or subcutaneously (SC) and allowed to grow for 24-hours. After treatment with compound 2-3, fibers were removed and tumor cell growth was measured using the MTT assay. A549, Panc-1 or HT-29 cells were injected into separate fibers and each mouse received a fiber containing each cell line both SC and IP totaling six fibers per mouse.

The test system of assay [2] is Aurora-2 kinase (Aurora-A) over Aurora-1 kinase (Aurora-B). In words: SelectScreen kinase assay, specificity within the Aurora kinase family. It is filed as biochemical. Conditions: SelectScreen kinase assay system. Here is the method:
In order to determine the specificity of compound 2-3 within the Aurora kinase family, both Aurora-2 kinase (Aurora-A) and Aurora-1 kinase (Aurora-B) were examined for sensitivity to this molecule. These studies were performed using the SelectScreen kinase assay system (Invitrogen Corp.; Madison, Wis.) and gave rise to the results presented in FIG. 2.

[3] abbreviates: 96 h, Example 20, 4 days, read-out: Cell-based IC50 values TT.

Where two headings read alike, the source gives them in different places.

Regarding `CC(=O)NS(=O)(=O)c1ccc(NC(=S)N2CCN(c3ncnc4[nH]c5cc(C(F)(F)F)c(Cl)cc5c34)CC2)cc1` [Compound 1-1, 4-(6-Chloro-7-trifluoromethyl-9H-pyrimido[4,5-b]indol-4-yl)-piperazine-1-carbothioic acid (4-acetylsulfamoyl-phenyl)-amide], the IC50 is 7.83 µM in assay [1]; 51.7 µM in the assay on TT (medullary thyroid) (96 h, Example 18, 4 days, read-out: calculated IC50 TT); 11 µM in the assay on TT (medullary thyroid) (setting [3]); 51.7 µM with TT (medullary thyroid) (Table 10, 96 hours, read-out: IC50 TT (inhibit cell growth to 50% of untreated)); 66.6 µM with MiaPaCa-2 (pancreas).
For `COc1cc2[nH]c3ncnc(N4CCN(C(=S)Nc5ccc(S(=O)(=O)NC(C)=O)cc5)CC4)c3c2cc1OC` [Compound 1-2, 4-(6,7-Dimethoxy-9H-pyrimido[4,5-b]indol-4-yl)-piperazine-1-carbothioic acid (4-acetylsulfamoyl-phenyl)-amide], the IC50 in the assay with TT (medullary thyroid) (setting [3]) stood at 64 µM.
Same read-out and setting: next, `CC(=O)NS(=O)(=O)c1ccc(NC(=S)N2CCN(c3ncnc4[nH]c5ccc(Cl)cc5c34)CC2)cc1` [Compound 1-3, 4-(6-chloro-9H-pyrimido[4,5-b]indol-4-yl)-piperazine-1-carbothioic acid (4-acetylsulfamoyl-phenyl)-amide]: 13.2 µM; `COc1cc2[nH]c3ncnc(N4CCN(C(=S)Nc5ccc(NC(=O)C6CC6)cc5)CC4)c3c2cc1OC` [Compound 1-34]: 99.1 µM.
The same measure, in the same setting: next, `COc1cc2[nH]c3ncnc(N4CCN(C(=S)Nc5ccc(NC(C)=O)cc5)CC4)c3c2cc1OC` [Compound 1-42]: 129 µM.
On the same count and under the same terms, next, `COc1cc2[nH]c3ncnc(N4CCN(C(=S)Nc5ccc(S(N)(=O)=O)cc5)CC4)c3c2cc1OC` [Compound 1-107]: 147 µM.
Turning to `COc1cc2[nH]c3ncnc(N4CCN(C(=S)Nc5ccc(S(C)(=O)=O)cc5)CC4)c3c2cc1OC` [Compound 1-115], the IC50 in the assay with TT (medullary thyroid) (setting [3]) came out at 38.6 µM.
`COc1cc2[nH]c3ncnc(N4CCN(C(=S)Nc5ccc(S(=O)(=O)Nc6ccc(F)cc6)cc5)CC4)c3c2cc1OC` [Compound 2-3, 4-(6,7-dimethoxy-9H-pyrimido[4,5-b]indol-4-yl)-N-(4-(N-(4-fluorophenyl)sulfamoyl)phenyl)piperazine-1-carbothioamide]: the figures for the “tumor cell growth in fibers” value with Panc-1 cells (20 mg/kg intravenous) and in the assay with Panc-1 cells (40 mg/kg intravenous) were 58.7 % growth and 60.9 % growth, respectively. The “selectivity for Aurora-2 kinase over Aurora-1 kinase” value in assay [2] was “over 100 fold”.

As a reminder, the IC50 is the concentration at which inhibition is half-maximal.

Values taken from US20080207632A1, “PROTEIN KINASE INHIBITORS” (SUPERGEN, INC., priority 2006, published 2008).
